Here are results for 8 molecules from patent publication US20230159445A1, “STAT INHIBITORY COMPOUNDS AND COMPOSITIONS” (JANPIX LIMITED, priority 2020, published 2023).

Usually IC50 stands for the concentration that inhibits the measured activity by half. High values mean weaker potency, low ones greater potency. A word on the half-life: it is the time needed for the level to fall by half in the phase considered. Higher therefore signals slow decline.

Data set [1] deals with normal human fibroblast (NHF) cells. As to the kind of experiment: NHF Cell Cytotoxicity Assay (CellTiter-Blue, 72 h), off-target effects. In kind it is cell-based. The note with it: Homo sapiens, Fibroblast; pooled NHF cells. The protocol: In some embodiments, the off-target effects of the compounds are evaluated in healthy human cells, such as in a normal human fibroblast (NHF) cell cytotoxicity assay.
Cell viability was examined following treatment at various concentrations of inhibitor (0.097656-50 μM) using a cell Titer-Blue cell viability assay. 1×10^4 normal human fibroblast cells per well were plated in 96-well assay plates in culture medium. All cells are grown in DMEM, IMDM and RPMI-1640 were supplemented with 10% FBS. After 24 hours, test compounds and vehicle controls are added to appropriate wells so the final volume was 100 μl in each well. The cells are cultured for the desired test exposure period (72 hours) at 37° C. and 5% CO2. The assay plates are removed from 37° C. incubator and 20 μL/well of CellTiter-Blue® Reagent is added. The plates are incubated using standard cell culture conditions for 1-4 hours and the plates are shaken for 10 seconds and record fluorescence at 560/590nm. For each sample well, value is normalized between the DMSO control and the highest concentration in case of plateau, and converted into a percentage. In the absence of plateau, minimum lecture is obtained from a different sample within the same experiment. For each concentration, the four replicates are averaged and standard deviation calculated. Data is fitted to a log(inhibitor) vs response curve with variable slope model using Microsoft Excel, obtaining IC50 and Hill slope variables.
A person skilled in the art would appreciate that a higher IC50 value in this NHF assay can indicate lower off-target effects.
In general terms: Resazurin is reduced to fluorescent resorufin, in cell work by metabolically active cells.

The subject of data set [2] is glutathione (GSH). The data set can be described thus: Reactivity Profiling with Glutathione (GSH), half-life by HPLC. The note with it: 5 mM glutathione (GSH) in IMDM with 10% FBS.
Data set [3] deals with MV4-11 cells. The data set can be described thus: MV4-11 Cell Cytotoxicity Assay (CellTiter-Blue, 72 h). In kind it is cell-based, human. The note with it: Homo sapiens, MV4-11; MV-4-11 cells. In a few lines: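 Cells seeded 24 h before treatment, then exposed 72 h at 37° C, 5% CO2 to inhibitors in triplicate, top concentration 50 μM with 1:2 serial dilutions (0.5% DMSO vehicle). Viability read by CellTiter-Blue fluorescence at 560/590 nm after 1 h.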

Regarding `COc1cc(C(=O)O)ccc1N(Cc1cc(C2CC2)cc(C(C)(C)C)c1)C(=O)CN(Cc1ccc(Cl)cc1)S(=O)(=O)c1c(F)c(F)c(F)c(F)c1F` [Compound 1016, 4-(N-(3-(tert-butyl)-5-cyclopropylbenzyl)-2-(N-(4-chlorobenzyl)-(2,3,4,5,6-pentafluorophenyl)sulfon-amido)acetamido)-3-methoxybenzoic acid], the IC50 fell in the range of 20 to 30 µM in data set [1] and 316 to 1000 nM in data set [3]. The half-life at 25 μM in data set [2] was in the range of 4.12 to 9.23 h.
For `CN(C)c1cc(C(=O)O)ccc1N(Cc1cc(C2CC2)cc(C(C)(C)C)c1)C(=O)CN(Cc1ccc(Cl)cc1)S(=O)(=O)c1c(F)c(F)c(F)c(F)c1F` [Compound 1041, 4-(N-(3-(tert-butyl)-5-cyclopropylbenzyl)-2-(N-(4-chlorobenzyl)-(2,3,4,5,6-pentafluorophenyl)sulfon-amido)acetamido)-3-(dimethylamino)benzoic acid] the same measures were 20 to 30 µM, 316 to 1000 nM and 9.23 to 1670 h.
For `COc1cc(C(=O)O)ccc1N(Cc1cc(C2CC2)cc(C(C)(C)C)c1)C(=O)CN(Cc1ccccc1F)S(=O)(=O)c1c(F)c(F)c(F)c(F)c1F` [Compound 1061, 4-(N-(3-(tert-butyl)-5-cyclopropylbenzyl)-2-(N-(2-fluorobenzyl)-(2,3,4,5,6-pentafluoro-phenyl)sulfonamido)acetamido)-3-methoxybenzoic acid] the same measures were 10 to 20 µM, 0.01 to 316 nM and 2.37 to 4.12 h.
For `CC(C)(C)c1cc(CN(C(=O)CN(Cc2ccccc2F)S(=O)(=O)c2c(F)c(F)c(F)c(F)c2F)c2ccc(C(=O)O)cc2OC2CC2)cc(C2CC2)c1` [Compound 1062, 4-(N-(3-(tert-butyl)-5-cyclopropylbenzyl)-2-(N-(2-fluorobenzyl)-(2,3,4,5,6-pentafluoro-phenyl)sulfonamido)acetamido)-3-cyclopropoxybenzoic acid] the same measures were 10 to 20 µM, 0.01 to 316 nM and 9.23 to 1670 h.
`CC(C)(C)c1cc(CN(C(=O)CN(Cc2ccc(F)cc2Cl)S(=O)(=O)c2c(F)c(F)c(F)c(F)c2F)c2ccc(C(=O)O)cc2O[C@H]2CCOC2)cc(C2CC2)c1` [Compound 1248, (S)-4-(N-(3-(tert-butyl)-5-cyclopropylbenzyl)-2-(N-(2-chloro-4-fluorobenzyl)-(2,3,4,5,6-pentafluorophenyl)sulfon-amido)acetamido)-3-((tetrahydrofuran-3-yl)oxy)benzoic acid] yielded an IC50 in data set [1] of 0.001 to 10 µM. For the same molecule, the half-life at 25 μM in data set [2] lay in the range of 2.37 to 4.12 h.
For `CC(C)(C)c1cc(CN(C(=O)CN(Cc2ccc(F)cc2Cl)S(=O)(=O)c2c(F)c(F)c(F)c(F)c2F)c2ccc(C(=O)O)cc2O[C@@H]2CCOC2)cc(C2CC2)c1` [Compound 1249, (R)-4-(N-(3-(tert-butyl)-5-cyclopropylbenzyl)-2-(N-(2-chloro-4-fluorobenzyl)-(2,3,4,5,6-pentafluorophenyl)sulfon-amido)acetamido)-3-((tetrahydrofuran-3-yl)oxy)benzoic acid] the same measures were 10 to 20 µM and 2.37 to 4.12 h.
For `CC(C)COc1cc(C(=O)O)ccc1N(Cc1cc(C2CC2)cc(C2CC2)c1)C(=O)CN(Cc1ccc(F)cc1Cl)S(=O)(=O)c1c(F)c(F)c(F)c(F)c1F` [Compound 1255, 4-(2-(N-(2-chloro-4-fluorobenzyl)-(2,3,4,5,6-pentafluorophenyl)sulfon-amido)-N-(3,5-dicyclopropylbenzyl)acetamido)-3-isobutoxybenzoic acid] the same measures were 10 to 20 µM and 9.23 to 1670 h.
For `O=C(O)c1ccc(N(Cc2cc(C3CC3)cc(C3CC3)c2)C(=O)CN(Cc2ccc(F)cc2Cl)S(=O)(=O)c2c(F)c(F)c(F)c(F)c2F)c(OCC2COC2)c1` [Compound 1257, 4-(2-(N-(2-chloro-4-fluorobenzyl)-(2,3,4,5,6-pentafluorophenyl)sulfon-amido)-N-(3,5-dicyclopropylbenzyl)acetamido)-3-(oxetan-3-ylmethoxy)benzoic acid], in that order: 10 to 20 µM and 0.00167 to 2.37 h.
